The values below come from patent US6500794B1, “Granulated bleaching activator” (Kao Corporation, priority 1999, dated 2002).

This data set can be described thus: Solubility of component (a) in aqueous nonionic surfactant solution, requirements (1) and (2). The class given is physicochemical. The following applies: 10° C., stirred five minutes; for solubility of the component (a), Condition (2): 0.1 g component (a) (A-1) in 0.25 g nonionic surfactant / 500 ml water; for solubility of the component (a), Condition (1): 0.1 g component (a) (A-1) in 10 g nonionic surfactant / 500 ml water. The protocol:
(1) when 0.1 g of the component (a) is added to an aqueous solution produced by dissolving 10 g of the component (b1) in 500 ml of water at 10° C. and the mixture was stirred for five minutes, the solubility of the component (a) just after the stirring is 50% by weight or more; and
Herein, the solubility was measured using the following method.
Method for Measuring Solubility
1 l glass beaker (cylinder type; inside diameter: 105 mm, height: 15 cm) was charged with 500 ml of an aqueous solution in which the component (b1) was dissolved in an amount corresponding to the requirements (1) and (2) and the solution was stirred (using a magnetic stirrer; a cylindrical stirrer piece with a diameter of 15 mm and a length of 52 mm, 200 rpm) in a thermostat kept at 10° C. At the stage in which the temperature of the solution reached 10° C., the powdery component (a) having a bulk density of […] and containing 10% by weight or less of particles with a grain size of 125 μm was added thereto in a prescribed amount and then the solution was stirred for 5 minutes. Thereafter, the solution was filtered through a membrane filter (Cellulose Nitrate A045A047A, 0.47 μm, manufactured by […]) and the content of the component (a) in the filtrate was determined by using high performance liquid chromatography to determine the solubility by the following formula. [formula]
Granulated Bleaching activator having the compositions shown in Table 2 were prepared by using the bleaching activator A-1 and nonionic surfactants B-1 and B-2 described below according to the method described below. Also, granulated bleaching activators were prepared in the same manner as above by using B′-1, B′-2 and B′-3 as comparative nonionic surfactants. Each solubility of these nonionic surfactants in the conditions (1) and (2) are shown below.

For C12H25O—(EO)15—H [B′-3], the “solubility of the component (a), Condition (2)” value was found to be 3% and the “solubility of the component (a), Condition (1)” value is given as 46%.
The like results for C12H25O—(EO)10—(PO)4—H [Example B-2] were, in that order, 0.5% and 81%.
Taken in the same sequence, the figures for C12H25O—(EO)7—H [B′-1] were 32% and 82%.
For the substance “C12H25O—(EO)5—(PO)2—(EO)5—H [Example B-1]”, the “solubility of the component (a), Condition (2)” value stood at 7% and the “solubility of the component (a), Condition (1)” value came out at 79%.
